Data from ChEMBL document CHEMBL4421722, “Inhibitors of protein prenyltransferases” (2013).
Activity calls are given as the source filed them. The calls are words filed in the database; no cut-off is given here.

Legend:
[1] = Toxicity in SCID mouse xenografted with human PANC1 cells assessed as effect on WBC level at 1.16 mg/kg, ip dosed 3 times per week and measured every 2 weeks up to day 14 to day 47; type: organism-based; conditions: in vivo, 336 h
HEK293 = assay: Inhibition of geranylgeranyltransferase type I in HEK293 cells expressing Myc-HA-tagged Rheb-WT assessed as effect on unprenylated Rap1 accumulation at 2.5 uM incubated for 48 hrs by SDS-PAGE and immunoblot analysis; type: cell-based; conditions: Homo sapiens
[2] = Inhibition of rat recombinant geranylgeranyltransferase type I expressed in Escherichia coli assessed as reduction in geranylgeranylation of RhoA incubated for 30 mins in presence of [3H]GGPP by scintillation counting assay relative to control
[3] = Toxicity in SCID mouse xenografted with human PANC1 cells assessed as effect on AST […] level at 1.16 mg/kg, ip dosed 3 times per week and measured every 2 weeks up to day 14 to day 47; type: organism-based; conditions: in vivo, 336 h
K562 [4] = assay: Induction of cell cycle arrest in human K562 cells assessed as reduction in accumulation at S phase incubated for 48 hrs by flow cytometry; type: functional, cell-based
[5] = Clearance in SCID mouse xenografted with human PANC1 cells at 1.16 mg/kg, ip dosed once or 6 times per week; type: ADME, organism-based; conditions: in vivo
[6] = molecular target: Protein farnesyltransferase (Rattus norvegicus) (UniProt Q04631+Q02293); assay: Inhibition of rat recombinant FTase alpha/beta expressed in Escherichia coli at 100000 nM using K-Ras4B as a substrate as and [3H]farnesyl pyrophosphate incubated for 30 mins by scintillation counting assay
[7] = molecular target: T1, Geranylgeranyl transferase type-2 (Homo sapiens) (UniProt P53611+Q92696); assay: Inhibition of RabGGTase in HEK293 cells assessed as reduction in geranylgeranylation of Rab5b protein at 5 to 10 uM incubated for 48 hrs by SDS-PAGE and immunoblot analysis; type: cell-based
[8] = Toxicity in SCID mouse xenografted with human PANC1 cells assessed as effect on BUN level at 1.16 mg/kg, ip dosed 3 times per week and measured every 2 weeks up to day 14 to day 47; type: organism-based; conditions: in vivo, 336 h
[9] = Toxicity in SCID mouse xenografted with human PANC1 cells assessed as effect on ALT […] level at 1.16 mg/kg, ip dosed 3 times per week and measured every 2 weeks up to day 14 to day 47; type: organism-based; conditions: in vivo, 336 h
PANC-1 [10] = assay: Antitumor activity against human PANC1 cells xenografted in SCID mouse assessed as inhibition of tumor growth at 1.16 mg/kg, ip dosed six times per week and measured every 2 weeks; type: functional, organism-based
[11] = Toxicity in SCID mouse xenografted with human PANC1 cells assessed as effect on ALB level at 1.16 mg/kg, ip dosed 3 times per week and measured every 2 weeks up to day 14 to day 47; type: organism-based; conditions: in vivo, 336 h
[12] = Toxicity in SCID mouse xenografted with human PANC1 cells assessed as effect on PLT level at 1.16 mg/kg, ip dosed 3 times per week and measured every 2 weeks up to day 14 to day 47; type: organism-based; conditions: in vivo, 336 h
Mus musculus = organism: Mus musculus; assay: Inhibition of geranylgeranyltransferase type I in mouse NIH/3T3 cells transfected with p21WAF1/CIP1 promoter-Luc assessed as induction of p21 CIP1/WAF1 expression by luciferase reporter gene assay; type: cell-based
[13] = molecular target: Protein farnesyltransferase (Homo sapiens) (UniProt P49354+P49356); assay: Inhibition of FTase in HEK293 cells assessed as reduction in H-ras farnesylation at 2.5 to 10 uM incubated for 48 hrs by SDS-PAGE and immunoblot analysis; type: cell-based
K562 [14] = assay: Induction of cell cycle arrest in human K562 cells assessed as accumulation at G1 phase incubated for 48 hrs by flow cytometry; type: functional, cell-based
PANC-1 [15] = assay: Antitumor activity against human PANC1 cells xenografted in SCID mouse assessed as inhibition of tumor growth at 1.16 mg/kg, ip dosed once time per week and measured every 2 weeks; type: functional, organism-based
[16] = Toxicity in SCID mouse xenografted with human PANC1 cells assessed as effect on RBC level at 1.16 mg/kg, ip dosed 3 times per week and measured every 2 weeks up to day 14 to day 47; type: organism-based; conditions: in vivo, 336 h
[17] = Toxicity in SCID mouse xenografted with human PANC1 cells assessed as effect on CA level at 1.16 mg/kg, ip dosed 3 times per week and measured every 2 weeks up to day 14 to day 47; type: organism-based; conditions: in vivo, 336 h
[18] = molecular target: T1, Geranylgeranyl transferase type-2 (Homo sapiens); assay: Inhibition of RabGGTase (unknown origin) at 100000 nM using YPTI as substrate protein and [3H]geranylgeranyl pyrophosphate incubated for 20 mins by scintillation counting assay; type: protein-complex assay
PANC-1 [19] = assay: Antitumor activity against human PANC1 cells xenografted in SCID mouse assessed as inhibition of tumor growth at 1.16 mg/kg, ip dosed 3 times per week and measured every 2 weeks up to day 14 to day 47; type: functional, organism-based
Jurkat = assay: Antiproliferative activity against human Jurkat cells assessed as inhibition of cell proliferation incubated for 72 hrs by CCK8 assay; type: functional, cell-based
[20] = Toxicity in SCID mouse xenografted with human PANC1 cells assessed as effect on cholesterol level at 1.16 mg/kg, ip dosed 3 times per week and measured every 2 weeks up to day 14 to day 47; type: organism-based; conditions: in vivo, 336 h
[21] = Toxicity in SCID mouse xenografted with human PANC1 cells assessed as effect on CK level at 1.16 mg/kg, ip dosed 3 times per week and measured every 2 weeks up to day 14 to day 47; type: organism-based; conditions: in vivo, 336 h
[22] = Toxicity in SCID mouse xenografted with human PANC1 cells assessed as effect on creatinine level at 1.16 mg/kg, ip dosed 3 times per week and measured every 2 weeks up to day 14 to day 47; type: organism-based; conditions: in vivo, 336 h
[23] = Toxicity in SCID mouse xenografted with human PANC1 cells assessed as effect on NE level at 1.16 mg/kg, ip dosed 3 times per week and measured every 2 weeks up to day 14 to day 47; type: organism-based; conditions: in vivo, 336 h
[24] = Toxicity in SCID mouse xenografted with human PANC1 cells assessed as effect on GLU level at 1.16 mg/kg, ip dosed 3 times per week and measured every 2 weeks up to day 14 to day 47; type: organism-based; conditions: in vivo, 336 h
[25] = Toxicity in SCID mouse xenografted with human PANC1 cells assessed as effect on LY level at 1.16 mg/kg, ip dosed 3 times per week and measured every 2 weeks up to day 14 to day 47; type: organism-based; conditions: in vivo, 336 h
[26] = Toxicity in SCID mouse xenografted with human PANC1 cells assessed as effect on ALP level at 1.16 mg/kg, ip dosed 3 times per week and measured every 2 weeks up to day 14 to day 47; type: organism-based; conditions: in vivo, 336 h
MCF7 = assay: Antiproliferative activity against human MCF7 cells assessed as inhibition of cell proliferation incubated for 6 days by CCK8 assay; type: functional, cell-based

IC50 [2]: 1 to 7.7 µM
CL/F [5]: 0.0173 mL/min
inhibition [6]: inactive
inhibition [7]: inactive
inhibition [13]: inactive
inhibition [18]: inactive
GI50 (Jurkat): 4.89 to 6.1 µM
SMILES: Cc1ccccc1S(=O)(=O)N1[C@@H](c2ccc(Cl)cc2)C(C(=O)N[C@@H](Cc2ccccc2)C(N)=O)=C[C@H]1C(C)(C)C
Activity [1]: Non-Toxic
inhibition (HEK293): Active
Activity [3]: Non-Toxic
Activity (K562 [4]): Dose-dependent effect
Activity [8]: Non-Toxic
Activity [9]: Non-Toxic
TGI (PANC-1 [10]): Active
Activity [11]: Non-Toxic
Activity [12]: Non-Toxic
Activity (Mus musculus): Dose-dependent effect
Activity (K562 [14]): Dose-dependent effect
TGI (PANC-1 [15]): Active
Activity [16]: Non-Toxic
Activity [17]: Non-Toxic
TGI (PANC-1 [19]): Active
Activity [20]: Non-Toxic
Activity [21]: Non-Toxic
Activity [22]: Non-Toxic
Activity [23]: Non-Toxic
Activity [24]: Non-Toxic
Activity [25]: Non-Toxic
Activity [26]: Non-Toxic
inhibition (MCF7): Dose-dependent effect
